According to PubChem BioAssay (NCI):
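Grown in 96-well plates, cells were treated for 48 hours with each compound at five concentrations. Insufficient inhibition: endpoint recorded as highest concentration tested. The concentration for full growth arrest is given as TGI.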

Key:
Experiment in all cases: NCI anticancer screen, dose series, 48 h
[1] = system: 786-0 renal
[2] = system: A498 renal
[3] = system: A549 NSCLC
[4] = system: ACHN renal
[5] = system: CAKI-1 renal
[6] = system: CCRF-CEM leukemia
[7] = system: COLO 205 colon
[8] = system: DLD-1 colon
[9] = system: DMS 114 small cell lung
[10] = system: DMS 273 small cell lung
[11] = system: EKVX NSCLC
[12] = system: HCC-2998 colon
[13] = system: HCT-116 colon
[14] = system: HCT-15 colon
[15] = system: HL-60(TB) leukemia
[16] = system: HOP-18 NSCLC
[17] = system: HOP-92 NSCLC
[18] = system: HT29 colon
[19] = system: IGROV1 ovarian
[20] = system: K-562 leukemia
[21] = system: KM12 colon
[22] = system: KM20L2 colon
[23] = system: LXFL 529 NSCLC
[24] = system: M14 melanoma
[25] = system: M19-MEL melanoma
[26] = system: MALME-3M melanoma
[27] = system: MOLT-4 leukemia
[28] = system: NCI-H226 lung
[29] = system: NCI-H23 lung
[30] = system: NCI-H460 lung
[31] = system: NCI-H522 lung
[32] = system: OVCAR-3 ovarian
[33] = system: OVCAR-4 ovarian
[34] = system: OVCAR-8 ovarian
[35] = system: RPMI-8226 leukemia
[36] = system: RXF 393 renal
[37] = system: SF-268 CNS
[38] = system: SF-295 CNS
[39] = system: SF-539 CNS
[40] = system: SK-MEL-2 melanoma
[41] = system: SK-MEL-28 melanoma
[42] = system: SK-MEL-5 melanoma
[43] = system: SK-OV-3 ovarian
[44] = system: SN12C renal
[45] = system: SNB-19 CNS
[46] = system: SNB-75 CNS
[47] = system: SR leukemia
[48] = system: SW-620 colon
[49] = system: TK-10 renal
[50] = system: U251 CNS
[51] = system: UO-31 renal
[52] = system: XF 498 CNS
[53] = system: HOP-62 NSCLC
[54] = system: LOX IMVI melanoma
[55] = system: OVCAR-5 ovarian
[56] = system: RXF-631 renal
[57] = system: SNB-78 CNS
[58] = system: UACC-257 melanoma
[59] = system: UACC-62 melanoma

Measured: TGI

C[C@]12CCC(=O)C=C1CC[C@@H]1[C@@H]2C(=O)C[C@@]2(C)[C@H]1CC[C@]2(O)C(=O)CO
> 100 µM: [1] | [2] | [3] | [4] | [5] | [6] | [7] | [8] | [9] | [10] | [11] | [12] | [13] | [14] | [15] | [16] | [17] | [18] | [19] | [20] | [21] | [22] | [23] | [24] | [25] | [26] | [27] | [28] | [29] | [30] | [31] | [32] | [33] | [34] | [35] | [36] | [37] | [38] | [39] | [40] | [41] | [42] | [43] | [44] | [45] | [46] | [47] | [48] | [49] | [50] | [51] | [52]

COc1ccc(-c2cc(-c3ccccc3)c(C#N)c(=O)[nH]2)cc1
> 100 µM: [1] | [2] | [3] | [4] | [6] | [7] | [8] | [9] | [10] | [11] | [12] | [13] | [14] | [15] | [16] | [53] | [17] | [18] | [19] | [20] | [21] | [22] | [54] | [23] | [24] | [25] | [26] | [27] | [28] | [29] | [30] | [31] | [32] | [33] | [55] | [34] | [35] | [36] | [56] | [37] | [38] | [39] | [41] | [42] | [43] | [44] | [45] | [46] | [57] | [47] | [48] | [49] | [50] | [58] | [59] | [51]
